{"source": "paper PMC12406664", "about": "“New derivatives of 6-nitrocoumarin-3-thiosemicarbazone exhibit improved antiparasitic activity in the placenta against Trypanosoma cruzi and Toxoplasma gondii” (Antimicrobial Agents and Chemotherapy, 2025)", "key": {"[1]": {"system": "human placental explants (HPE)", "assay": "Histopathology of uninfected HPE exposed to the compounds alone", "conditions": "explants incubated only with the compound, 24 h, IC50 concentration", "method": "The HPE was fixed in 10% formaldehyde in 0.1 M phosphate buffer (pH 7.3) for 24 h, dehydrated in alcohol, clarified in xylene, embedded in paraffin, and sectioned at 3 µm. Paraffin histological sections were stained with hematoxylin-eosin for routine histological analysis, Picro Sirius red, and trichromic Masson for collagen histochemistry. Sections for the histological analysis were observed under an optical microscope (Leica DM500) and images were captured with a Leica ICC50 W camera ([7], [91])."}, "[2]": {"conditions": "vs. Ag/AgCl; cited from earlier work"}, "[3]": {"system": "T. cruzi (Dm28 strain) in HPE", "assay": "T. cruzi DNA load in infected human placental explants (HPE) by real-time qPCR", "format": "cell-based, Trypanosoma cruzi", "conditions": "IC50 concentration", "source_text": "Cells or HPE were exposed to parasites. […] The following treatment conditions were used in both infection models."}, "[4]": {"assay": "Cytotoxicity on cells (resazurin), BeWo", "format": "cell-based", "conditions": "human, BeWo trophoblast cells", "source_text": "(§1) Triton X-100 was used as a positive control, and untreated cells served as a negative control. In addition, the maximum concentration of DMSO was used as a control for the method. […] The obtained values were expressed as IC50([88])."}, "[5]": {"system": "T. cruzi (Dm28 strain) in BeWo cells", "assay": "Infection of BeWo cells by T. cruzi, infected cells counted by fluorescence microscopy", "format": "cell-based, Trypanosoma cruzi", "conditions": "compound at IC50, untreated control 24 ± 3", "method": "The effect of the compounds on the infection of BeWo trophoblast cells by T. gondii and T. cruzi was assessed. The DNA of T. gondii and T. cruzi was quantified in infected BeWo cells treated for 24 hours under two conditions: co-incubation and post-infection treatment. […] Fluorescence microscopy was employed to quantify the number of infected cells. The resulting images were analyzed using ImageJ software to count both infected and uninfected cells.\nFor the microscopic analysis of BeWo cells infected with T. cruzi, the cells were washed with PBS to remove the supernatant, fixed with 90% cold methanol, rewashed with PBS, and incubated for 5 minutes with 1 µg/mL—1 4,6-diamidino-2-phenylindole (DAPI) (Molecular Probes). To analyze BeWo cells infected with T. gondii, cells were fixed with 90% cold methanol, washed with PBS containing 0.05% Tween, and blocked using 3% BSA for 1 hour at 37°C. Then, they were incubated with the primary monoclonal antibody Toxoplasma gondii (TP3): sc-52255 at a dilution of 1:500 with 1% BSA overnight at 4°C. […] T. cruzi amastigotes were identified by their morphology, including nuclear size and the presence of a kinetoplast, and were analyzed and quantified using ImageJ. At least 500 cells per condition were analyzed, and infected and non-infected cells were counted for every 100 cells ([35], [70]). […]"}, "[6]": {"system": "T. cruzi trypomastigotes, Dm28 strain", "conditions": "read-out: IC50 T. cruzi; cited from earlier work"}, "[7]": {"system": "HPE exposed to T. cruzi trypomastigotes", "assay": "Histopathology of HPE infected with T. cruzi", "format": "cell-based, human", "conditions": "co-incubation, IC50 concentration"}, "[8]": {"system": "T. cruzi trypomastigotes, Dm28 strain", "assay": "Resazurin viability assay on free T. cruzi trypomastigotes", "conditions": "parasite T. cruzi", "method": "The reduction of resazurin sodium salt was used to determine the trypanocidal and toxoplasmicidal activity of the 6-nitrocoumarin-thiosemicarbazone hybrids 1–8. For this, treatment with the compounds was carried out for 24 h at a concentration of 100 µM.\nNFX was used as a positive control for T. cruzi, and PMN was used for T. gondii. Untreated parasites served as a negative control. […] Subsequently, parasites with their respective conditions were transferred to a 96-well white fluorescence reading plate, adding resazurin at a final concentration of […] with 0.8 mM phenazine. The plate was incubated for 3 hours at 37°C in a humidified atmosphere with 5% CO2, and fluorescence measurements were taken using a microplate reader (Thermo Scientific Varioskan Flash) at excitation wavelengths of 560 nm and emission wavelengths of 590 nm."}, "[9]": {"assay": "Cytotoxicity on cells (resazurin), EA.hy926", "format": "cell-based", "conditions": "human, EA.hy926 endothelial cells", "source_text": "as §1"}}}
{"compound": "CC1CS(=O)(=O)CCN1/N=C/c1ccc([N+](=O)[O-])o1", "note": "(stereo not shown) [NFX, nifurtimox, reference compound]", "values": [{"measurement": "tissue damage caused by the compound itself in HPE", "setting": "[1]", "result": "caused tissue damage"}, {"measurement": "E(pIIa)", "setting": "[2]", "result": "−0.70", "unit": "V"}, {"measurement": "E(pIIc)", "setting": "[2]", "result": "−0.75", "unit": "V"}, {"measurement": "effect on parasite DNA load", "setting": "[3]; co-incubation", "result": "managed to reduce the parasitic load"}, {"measurement": "effect on parasite DNA load", "setting": "[3]; post-infection treatment", "result": "no statistically significant activity"}, {"measurement": "CC50 at 24 h", "setting": "[4]", "result": "> 300", "unit": "µM"}, {"measurement": "Infected cells (%)", "setting": "[5]; co-incubation 24 h", "result": "2 ± 1", "unit": "%"}, {"measurement": "Infected cells (%)", "setting": "[5]; post-infection treatment 24 h", "result": "23 ± 4", "unit": "%"}, {"measurement": "IC50", "setting": "[6]", "result": "10 ± 0.4", "unit": "µM"}, {"measurement": "tissue damage in infected HPE (histopathology)", "setting": "[7]", "result": "caused tissue damage"}, {"measurement": "SI = BeWo CC50/parasite IC50", "setting": "[8]", "result": ">30"}, {"measurement": "SI = EA.hy926 CC50/parasite IC50", "setting": "[8]", "result": 34.9}, {"measurement": "CC50 at 24 h", "setting": "[9]", "result": "348.5 ± 1.2", "unit": "µM"}]}
